Values after ≈ are worked out from the molar mass of the structure shown.
Legend:
Assay type in all cases: functional, cell-based
[1] = test system: P388; assay: In vitro cytotoxicity of compound was measured on murine lymphocytic leukemia (P-388) cells.; details: Mus musculus
[2] = test system: SNU1; assay: In vitro cytotoxicity of compound was measured on human gastric adenocarcinoma (SNU-1) cells.
[3] = test system: B16; assay: In vitro cytotoxicity of compound was measured on murine melanoma (B16) cells.; details: Mus musculus

Question: Which results are given for `CC(=O)O[C@]1(C)CC[C@H]2C(C)(C)CCC[C@]2(C)[C@H]1C/C=C1/CCOC1=O`?
Answer: IC50 [1]: 7.8 µg/mL (≈ 21.5 µM); IC50 [2]: 12.3 µg/mL (≈ 33.9 µM); IC50 [3]: 11.3 µg/mL (≈ 31.2 µM)

Question: What does the source list for `CC(=O)O[C@]1(C)CC[C@H]2C(C)(C)CCC[C@]2(C)[C@H]1CC=O`?
Answer: IC50 [1]: 6.9 µg/mL (≈ 23.4 µM); IC50 [2]: 4.8 µg/mL (≈ 16.3 µM); IC50 [3]: 31.9 µg/mL (≈ 108 µM)

Question: `C=C1CC[C@H]2C(C)(C)CCC[C@]2(C)[C@H]1C/C=C(/C=O)CC=O` was tested. Which IC50 [1] did it give?
Answer: 4.1 µg/mL (≈ 13.6 µM)

Question: What about the IC50 [2] of the same molecule?
Answer: 12 µg/mL (≈ 39.7 µM)

Question: What about the IC50 [3] of the same molecule?
Answer: 41.2 µg/mL (≈ 136 µM)

Question: With `C=C1CC[C@H]2C(C)(C)CCC[C@]2(C)[C@H]1C/C=C1/CCOC1=O` as the molecule, how does the IC50 [1] read?
Answer: 6.7 µg/mL (≈ 22.2 µM)

Question: What about the IC50 [2] of the same molecule?
Answer: 19.2 µg/mL (≈ 63.5 µM)

Question: What about the IC50 [3] of the same molecule?
Answer: 7.5 µg/mL (≈ 24.8 µM)

Question: Which IC50 [1] does the source give for `C=C[C@](C)(O)CC[C@@H]1[C@@]2(C)CCCC(C)(C)[C@@H]2CC[C@@]1(C)O` [SCLAREOL] here?
Answer: 10.1 µg/mL (≈ 32.7 µM)

Question: And the IC50 [2]?
Answer: 11.9 µg/mL (≈ 38.6 µM)

Question: What about the IC50 [3] of the same molecule?
Answer: 28 µg/mL (≈ 90.8 µM)

Question: What does the source list for `C=C1CC[C@H]2C(C)(C)CCC[C@]2(C)[C@H]1/C=C/c1ccoc1` [CORONARIN E]?
Answer: IC50 [1]: 10 µg/mL (≈ 35.2 µM); IC50 [2]: 8 µg/mL (≈ 28.1 µM); IC50 [3]: 18.8 µg/mL (≈ 66.1 µM)

Question: What does the source list for `CC1(C)CCC[C@@]2(C)[C@H]1CCC1(CO1)[C@@H]2C/C=C1/CCOC1=O` (some centres not stated)?
Answer: IC50 [1]: 12.3 µg/mL (≈ 38.6 µM); IC50 [2]: 15.7 µg/mL (≈ 49.3 µM); IC50 [3]: 84.5 µg/mL (≈ 265 µM)

Question: Which IC50 [1] does the source give for `C=C1CC[C@H]2C(C)(C)CCC[C@]2(C)[C@H]1CC(O)c1ccoc1` (some centres not stated) here?
Answer: 3.6 µg/mL (≈ 11.9 µM)

Question: What about the IC50 [2] of the same molecule?
Answer: 3.9 µg/mL (≈ 12.9 µM)

Question: What about the IC50 [3] of the same molecule?
Answer: 47.2 µg/mL (≈ 156 µM)

Question: `C=C1[C@H](O)C[C@H]2C(C)(C)CCC[C@]2(C)[C@H]1/C=C/c1ccoc1` was tested. Which IC50 [1] did it give?
Answer: 10.3 µg/mL (≈ 34.3 µM)

Question: And the IC50 [2]?
Answer: 4.8 µg/mL (≈ 16 µM)

Question: What about the IC50 [3] of the same molecule?
Answer: 27.3 µg/mL (≈ 90.9 µM)

Question: What does the source list for `C=C1CC[C@H]2C(C)(C)CCC[C@]2(C)[C@H]1C/C=C(\CO)CCO`?
Answer: IC50 [1]: 6.3 µg/mL (≈ 20.6 µM); IC50 [2]: 8.6 µg/mL (≈ 28.1 µM); IC50 [3]: 28.9 µg/mL (≈ 94.3 µM)

Question: How did the IC50 [1] turn out when `CO[C@@]12[C@H](COC(N)=O)C3=C(C(=O)C(C)=C(N)C3=O)N1C[C@@H]1N[C@@H]12` [MITOMYCIN] was run?
Answer: 0.06 µg/mL (≈ 0.179 µM)

Question: And the IC50 [2]?
Answer: 2.32 µg/mL (≈ 6.94 µM)

Question: How did the IC50 [1] turn out when `COc1cccc2c1C(=O)c1c(O)c3c(c(O)c1C2=O)C[C@@](O)(C(=O)CO)C[C@@H]3O[C@H]1C[C@H](N)[C@H](O)[C@H](C)O1` [DOXORUBICIN] was run?
Answer: 0.09 µg/mL (≈ 0.166 µM)

Question: What about the IC50 [2] of the same molecule?
Answer: 2.15 µg/mL (≈ 3.96 µM)

Question: With `C=C1CC[C@H]2C(C)(C)CCC[C@]2(C)[C@H]1CC=O` as the molecule, how does the IC50 [1] read?
Answer: 0.16 µg/mL (≈ 0.683 µM)

Question: What about the IC50 [2] of the same molecule?
Answer: 3.9 µg/mL (≈ 16.6 µM)

Question: And the IC50 [3]?
Answer: 30.8 µg/mL (≈ 131 µM)
